Values quoted from earlier work as cited in patent US20250352557A1, “COMPOSITIONS FOR PERITONEAL DRUG DELIVERY AND METHODS OF USE THEREOF” (Viramal Limited, priority 2023, published 2025).

Tests used:
[1] = vaginal administration; previously refractory patients
[2] = not given; remark: listed apart in the source

Bioavailability with intake of foods high in fat (oral)	Time at which peak-plasma concentrations are reached (oral (Danatrol form))	Peak-plasma concentrations (oral (Danatrol form), absorbed from the gastrointestinal tract)	Log P [2]	SMILES	Average consumption of pain relief tablets (e.g., naproxen) reduced by [1]	Patient satisfaction [1]
tripled	2 to 3 h	50 to 80 ng/mL		C#C[C@]1(O)CC[C@H]2[C@@H]3CCC4=Cc5oncc5C[C@]4(C)[C@H]3CC[C@@]21C [Danazol, 17α-Pregna-2,4-dien-20-yno [2,3-d]-isoxazol-17-ol]	60%	80%
			3.82	CC(=O)[C@H]1CC[C@H]2[C@@H]3CCC4=CC(=O)CC[C@]4(C)[C@H]3CC[C@]12C [progesterone]		
